The nature of one test: cells. The format is functional, cell-based. The following applies: INS-1E.
A short description of test [1]: IC50 of insulin release inhibition, rat insulinoma INS-1E line, 5 mM glucose, cell-based (AID 1117331). The format is functional.
Test [2] deals with T1, Long-chain-fatty-acid--AMP ligase FadD28 (Mycobacterium tuberculosis, UniProt P9WQ59).
T1 sequence (P9WQ59 whole entry): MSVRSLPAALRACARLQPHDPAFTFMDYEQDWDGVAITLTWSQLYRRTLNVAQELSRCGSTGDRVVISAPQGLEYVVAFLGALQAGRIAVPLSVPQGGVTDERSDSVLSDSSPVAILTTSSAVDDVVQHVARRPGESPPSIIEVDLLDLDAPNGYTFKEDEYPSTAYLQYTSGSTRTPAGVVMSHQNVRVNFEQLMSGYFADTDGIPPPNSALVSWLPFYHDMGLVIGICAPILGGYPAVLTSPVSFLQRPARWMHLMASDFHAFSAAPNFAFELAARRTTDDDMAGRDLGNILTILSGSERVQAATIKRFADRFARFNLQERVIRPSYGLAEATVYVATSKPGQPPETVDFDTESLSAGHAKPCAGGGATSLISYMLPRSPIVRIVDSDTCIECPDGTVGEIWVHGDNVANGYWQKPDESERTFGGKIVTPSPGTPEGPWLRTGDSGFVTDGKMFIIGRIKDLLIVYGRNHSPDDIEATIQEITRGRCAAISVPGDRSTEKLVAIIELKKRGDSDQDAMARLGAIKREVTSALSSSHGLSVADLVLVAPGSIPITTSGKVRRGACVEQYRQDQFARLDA
Nature of the test: Fluorescence polarization aasay to screen for inhibitors that compete for the binding of FadD28 to a bisubstrate Measured in Biochemical System Using Plate Reader - 2147-01_Inhibitor_Dose_CherryPick_Activity. The format is functional, Mycobacterium tuberculosis H37Rv.

In test [3] the target is T2, Histone-lysine N-methyltransferase NSD2 (Homo sapiens, UniProt O96028).
T2 sequence (O96028 whole entry): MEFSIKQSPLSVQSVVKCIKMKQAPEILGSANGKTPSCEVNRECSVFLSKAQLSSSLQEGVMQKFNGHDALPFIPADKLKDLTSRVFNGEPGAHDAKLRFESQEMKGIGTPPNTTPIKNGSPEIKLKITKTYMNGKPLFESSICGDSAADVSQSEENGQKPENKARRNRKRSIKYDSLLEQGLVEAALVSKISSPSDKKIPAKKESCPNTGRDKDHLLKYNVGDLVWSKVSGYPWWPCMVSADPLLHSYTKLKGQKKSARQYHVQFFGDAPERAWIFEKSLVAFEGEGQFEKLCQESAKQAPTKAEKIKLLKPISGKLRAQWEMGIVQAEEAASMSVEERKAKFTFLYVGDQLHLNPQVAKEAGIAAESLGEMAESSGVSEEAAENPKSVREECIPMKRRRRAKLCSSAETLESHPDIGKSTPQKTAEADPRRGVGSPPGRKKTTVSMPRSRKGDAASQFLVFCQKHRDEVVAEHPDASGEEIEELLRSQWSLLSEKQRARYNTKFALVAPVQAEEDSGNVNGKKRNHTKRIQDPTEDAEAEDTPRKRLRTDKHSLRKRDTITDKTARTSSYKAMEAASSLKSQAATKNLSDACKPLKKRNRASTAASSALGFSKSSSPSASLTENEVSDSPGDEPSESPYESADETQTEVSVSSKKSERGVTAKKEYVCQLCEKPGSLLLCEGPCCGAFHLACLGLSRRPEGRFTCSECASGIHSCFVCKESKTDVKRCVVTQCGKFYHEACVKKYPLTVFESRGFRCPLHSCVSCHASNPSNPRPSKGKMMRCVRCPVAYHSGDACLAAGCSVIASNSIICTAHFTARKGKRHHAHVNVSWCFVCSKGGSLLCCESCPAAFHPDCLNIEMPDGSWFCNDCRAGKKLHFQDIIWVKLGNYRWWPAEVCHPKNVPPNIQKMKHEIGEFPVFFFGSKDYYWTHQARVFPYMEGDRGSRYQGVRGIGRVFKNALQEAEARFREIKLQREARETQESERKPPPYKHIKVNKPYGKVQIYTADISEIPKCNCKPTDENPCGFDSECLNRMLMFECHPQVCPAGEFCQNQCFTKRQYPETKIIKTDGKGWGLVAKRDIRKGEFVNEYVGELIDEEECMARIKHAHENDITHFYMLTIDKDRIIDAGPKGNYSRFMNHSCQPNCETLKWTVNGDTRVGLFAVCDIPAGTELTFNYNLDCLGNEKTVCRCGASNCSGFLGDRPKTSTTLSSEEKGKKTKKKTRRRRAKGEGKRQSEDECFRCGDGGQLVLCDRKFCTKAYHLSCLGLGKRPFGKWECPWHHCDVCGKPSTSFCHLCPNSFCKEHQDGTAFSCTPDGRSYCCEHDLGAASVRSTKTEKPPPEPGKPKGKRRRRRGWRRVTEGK
The format is biochemical.

A further test concerns the target T3, Cysteine protease ATG4B (Homo sapiens, UniProt Q9Y4P1).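 Further: Fluorescence-based dose-response confirmation assay measuring inhibition of ATG4B activity.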
T3 sequence (Q9Y4P1 whole entry): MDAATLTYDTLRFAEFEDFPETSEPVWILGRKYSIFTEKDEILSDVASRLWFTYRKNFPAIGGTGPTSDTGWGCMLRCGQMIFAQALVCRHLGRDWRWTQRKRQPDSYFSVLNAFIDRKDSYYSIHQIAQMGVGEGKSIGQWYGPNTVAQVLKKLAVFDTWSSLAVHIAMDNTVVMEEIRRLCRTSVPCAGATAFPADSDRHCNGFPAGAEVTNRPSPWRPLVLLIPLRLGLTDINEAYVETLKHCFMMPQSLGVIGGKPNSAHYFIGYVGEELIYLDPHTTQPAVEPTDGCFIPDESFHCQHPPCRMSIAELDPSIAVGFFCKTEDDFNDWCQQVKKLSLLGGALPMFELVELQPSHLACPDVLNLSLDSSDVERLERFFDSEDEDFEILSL
The format is functional.

The subject of the next test is Vero. Nature of the test: viability of Vero cells under compound – cytotoxicity control for flavivirus capping enzyme inhibitors (AID 588742). It is filed as functional. The following applies: Chlorocebus sabaeus.
A short description of test [4]: viability loss in THP-1 monocytes – THP-1 cells, cytotoxicity control for Vif-APOBEC3G degradation inhibitor project, dose response (AID 1117359). To be noted: THP-1. The format is functional.
Test [5] deals with Glutathione-S-transferase (Schistosoma japonicum, UniProt Q26513). Nature of the test: GST-antibody interaction or FRET quenching – biochemical, TR-FRET, artefact control for Vif-APOBEC3G degradation inhibitor project, dose response (AID 1117362). It is filed as functional.
The target in test [6] is T4, Tyrosyl-DNA phosphodiesterase 2 (Homo sapiens, UniProt O95551).
T4 sequence (O95551 whole entry): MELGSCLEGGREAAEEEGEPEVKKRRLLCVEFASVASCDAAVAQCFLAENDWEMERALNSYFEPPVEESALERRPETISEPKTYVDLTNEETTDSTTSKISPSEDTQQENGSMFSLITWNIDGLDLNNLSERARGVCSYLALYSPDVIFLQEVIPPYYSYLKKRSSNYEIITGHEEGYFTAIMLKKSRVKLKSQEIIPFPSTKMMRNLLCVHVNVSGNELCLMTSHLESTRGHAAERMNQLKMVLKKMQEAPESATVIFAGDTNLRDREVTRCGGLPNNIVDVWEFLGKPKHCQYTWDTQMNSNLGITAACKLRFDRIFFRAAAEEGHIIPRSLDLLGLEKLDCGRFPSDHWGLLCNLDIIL
Nature of the test: potency against TDP2 phosphodiesterase activity – biochemical, epi absorbance, IC50, dose response (AID 743297).

The next test has as its target Genome polyprotein (dengue virus type 2, UniProt P29990). Nature of the test: flavivirus cap methylation enzyme inhibition – biochemical, confirmation dose response, primary screen (AID 588689). The format is functional.
Another test concerns the target Phospholipase A2 (Homo sapiens, UniProt P04054). The format is functional.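 Further: confirmatory dose-response counterscreen on phospholipase A2, testing hits that came from an ultra-high-throughput screen for ATG4B inhibitors.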
The target in test [7] is Dual specificity tyrosine-phosphorylation-regulated kinase 1A (Rattus norvegicus, UniProt Q63470). It is filed as biochemical, Homo sapiens.
Test [8] deals with Aryl hydrocarbon receptor (Homo sapiens, UniProt P35869). Nature of the test: Luminescence-based cell-based high throughput dose response assay for activators of the Aryl Hydrocarbon Receptor (AHR). [Related pubchem assays: 2796 (Primary screen (AHR activators in singlicate)), 2845 (Confirmation screen (AHR activators in triplicate)), 434939 (Counterscreen (PXR activators in triplicate)), 2804 (Summary (AHR activators))]. The format is ADME.

Test [9] can be described thus: Luminescence Cell-Based Dose Response HTS to Identify Activators of Luciferase Translation or Activity in H4 […] Cells. [Related pubchem assays: 1829 (Project Summary), 1814 (Primary HTS)]. The format is functional.
Test [10] in a line: Luminescence Cell-Based Dose Confirmation HTS to Identify Activators of 5'UTR Stem-Loop Driven Alpha-Synuclein mRNA Translation in H4 Neuroglioblastoma Cells. [Related pubchem assays: 1829 (Project Summary), 1814 (Primary HTS)]. The format is functional.
The test system of a further test is H4. Nature of the test: Luminescence Cell-Based Dose Response HTS to Identify Activators of 5'UTR Stem-Loop Driven Prion Protein mRNA Translation in H4 Neuroglioblastoma Cells. [Related pubchem assays: 1829 (Project Summary), 1814 (Primary HTS)]. It is filed as functional. The following applies: Homo sapiens.
Test [11] addresses Heat shock protein HSP 90-alpha (Homo sapiens, UniProt P07900). Put plainly: Luminescence-based dose response biochemical high throughput screening assay for inhibitors of the Heat Shock Protein 90 (HSP90). [Related pubchem assays: 1831 (Summary AID.), 1846 (Confirmation screen.), 1789 (Primary screen.)].
Test [12] addresses Mitogen-activated protein kinase 10 (Homo sapiens, UniProt P53779). Put plainly: Dose response biochemical screening assay for inhibitors of c-Jun N-Terminal Kinase 3 (JNK3). [Related pubchem assays: 746 ].
A further test deals with Cytochrome P450 2C19 (Homo sapiens, UniProt P33261). Put plainly: qHTS Assay for Inhibitors and Substrates of Cytochrome P450 2C19. [Related pubchem assays: 410 ]. It is filed as ADME. The following applies: read-out: Potency.

Calls of active or inactive are those of the source. Some results are limits rather than exact numbers.

Chain of Phospholipase A2 (P04054 whole entry): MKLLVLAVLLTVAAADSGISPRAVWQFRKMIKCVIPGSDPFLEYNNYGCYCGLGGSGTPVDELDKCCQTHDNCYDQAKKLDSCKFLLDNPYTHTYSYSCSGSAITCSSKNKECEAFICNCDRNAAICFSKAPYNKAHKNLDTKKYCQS
Chain of Cytochrome P450 2C19 (P33261 whole entry): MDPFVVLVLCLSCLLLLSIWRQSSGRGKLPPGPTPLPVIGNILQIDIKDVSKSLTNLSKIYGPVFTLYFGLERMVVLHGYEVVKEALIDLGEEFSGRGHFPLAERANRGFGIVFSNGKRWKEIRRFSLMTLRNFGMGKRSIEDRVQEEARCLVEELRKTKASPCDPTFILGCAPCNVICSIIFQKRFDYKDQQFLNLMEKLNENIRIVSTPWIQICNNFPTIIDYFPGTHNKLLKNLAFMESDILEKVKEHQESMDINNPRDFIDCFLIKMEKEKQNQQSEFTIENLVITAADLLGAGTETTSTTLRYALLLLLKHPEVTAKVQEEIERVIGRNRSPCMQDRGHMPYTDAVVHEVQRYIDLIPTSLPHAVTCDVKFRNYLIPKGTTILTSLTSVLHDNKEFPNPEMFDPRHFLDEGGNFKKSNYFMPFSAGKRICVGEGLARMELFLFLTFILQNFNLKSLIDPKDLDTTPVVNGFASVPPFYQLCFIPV
Chain of Aryl hydrocarbon receptor (P35869 whole entry): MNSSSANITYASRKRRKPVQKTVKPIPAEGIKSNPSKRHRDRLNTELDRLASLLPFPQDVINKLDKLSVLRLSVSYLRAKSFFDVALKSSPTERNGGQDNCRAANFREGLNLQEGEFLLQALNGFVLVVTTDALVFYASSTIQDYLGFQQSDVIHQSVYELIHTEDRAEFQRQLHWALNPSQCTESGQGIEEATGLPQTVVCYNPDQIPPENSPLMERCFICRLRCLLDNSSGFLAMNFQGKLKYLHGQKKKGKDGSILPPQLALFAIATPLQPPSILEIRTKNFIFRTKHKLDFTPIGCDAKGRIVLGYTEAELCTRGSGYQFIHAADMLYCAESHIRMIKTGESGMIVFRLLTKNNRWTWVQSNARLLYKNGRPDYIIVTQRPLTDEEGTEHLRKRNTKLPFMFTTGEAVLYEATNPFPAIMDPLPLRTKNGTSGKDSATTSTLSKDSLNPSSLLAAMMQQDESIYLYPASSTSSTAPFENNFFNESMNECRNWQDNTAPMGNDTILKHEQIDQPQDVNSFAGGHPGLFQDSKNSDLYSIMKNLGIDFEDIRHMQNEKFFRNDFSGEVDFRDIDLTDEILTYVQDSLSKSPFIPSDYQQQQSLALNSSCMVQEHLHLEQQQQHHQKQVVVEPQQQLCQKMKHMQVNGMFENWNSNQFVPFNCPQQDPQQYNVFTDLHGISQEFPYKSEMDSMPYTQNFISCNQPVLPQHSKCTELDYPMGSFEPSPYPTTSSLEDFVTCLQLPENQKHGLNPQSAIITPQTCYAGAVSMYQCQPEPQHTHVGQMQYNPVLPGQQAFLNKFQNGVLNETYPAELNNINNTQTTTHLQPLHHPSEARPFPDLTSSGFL
Chain of Genome polyprotein (P29990 2492-3391 limits assumed): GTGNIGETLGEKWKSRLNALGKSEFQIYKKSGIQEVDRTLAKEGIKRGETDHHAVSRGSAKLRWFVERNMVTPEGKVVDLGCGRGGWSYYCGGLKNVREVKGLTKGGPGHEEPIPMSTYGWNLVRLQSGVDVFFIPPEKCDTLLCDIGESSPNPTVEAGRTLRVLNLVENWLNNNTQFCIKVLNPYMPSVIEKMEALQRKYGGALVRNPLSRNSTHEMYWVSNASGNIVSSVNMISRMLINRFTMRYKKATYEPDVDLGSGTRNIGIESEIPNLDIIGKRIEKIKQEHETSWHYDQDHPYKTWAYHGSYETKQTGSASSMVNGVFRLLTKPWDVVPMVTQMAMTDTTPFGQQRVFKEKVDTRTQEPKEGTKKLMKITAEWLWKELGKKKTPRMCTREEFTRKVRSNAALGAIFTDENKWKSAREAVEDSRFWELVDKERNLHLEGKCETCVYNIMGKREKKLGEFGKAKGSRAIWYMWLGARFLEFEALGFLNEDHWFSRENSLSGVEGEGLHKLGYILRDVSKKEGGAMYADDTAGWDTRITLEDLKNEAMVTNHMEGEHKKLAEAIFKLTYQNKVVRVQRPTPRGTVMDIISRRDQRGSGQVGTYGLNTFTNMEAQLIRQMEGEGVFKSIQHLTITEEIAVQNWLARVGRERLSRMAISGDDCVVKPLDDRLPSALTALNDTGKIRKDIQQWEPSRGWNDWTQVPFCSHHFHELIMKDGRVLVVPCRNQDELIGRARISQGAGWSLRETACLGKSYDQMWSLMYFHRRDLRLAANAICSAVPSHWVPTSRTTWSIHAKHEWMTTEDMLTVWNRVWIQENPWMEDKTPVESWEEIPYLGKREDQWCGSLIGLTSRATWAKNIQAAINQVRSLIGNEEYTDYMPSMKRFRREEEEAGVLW
Chain of Mitogen-activated protein kinase 10 (P53779 whole entry): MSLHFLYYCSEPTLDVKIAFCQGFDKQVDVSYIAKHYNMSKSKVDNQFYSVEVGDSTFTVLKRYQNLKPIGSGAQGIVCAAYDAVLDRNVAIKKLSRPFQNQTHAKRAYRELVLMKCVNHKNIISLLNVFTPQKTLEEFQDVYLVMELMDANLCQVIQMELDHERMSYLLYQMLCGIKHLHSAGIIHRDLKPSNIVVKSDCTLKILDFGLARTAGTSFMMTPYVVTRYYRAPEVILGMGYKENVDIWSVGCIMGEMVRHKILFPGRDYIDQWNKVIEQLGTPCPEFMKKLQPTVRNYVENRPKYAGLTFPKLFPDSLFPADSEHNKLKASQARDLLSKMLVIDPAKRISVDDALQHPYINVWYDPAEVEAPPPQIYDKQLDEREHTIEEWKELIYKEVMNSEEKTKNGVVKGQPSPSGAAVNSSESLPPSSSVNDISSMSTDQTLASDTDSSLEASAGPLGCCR
Chain of Glutathione-S-transferase (Q26513 whole entry): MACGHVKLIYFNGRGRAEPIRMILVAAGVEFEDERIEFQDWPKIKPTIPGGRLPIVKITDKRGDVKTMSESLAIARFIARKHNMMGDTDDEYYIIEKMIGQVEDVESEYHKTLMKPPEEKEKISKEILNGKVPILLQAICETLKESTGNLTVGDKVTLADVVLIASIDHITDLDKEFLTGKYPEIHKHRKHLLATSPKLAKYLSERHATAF

For the compound `Nc1c2c(nc3c1CCC3)CCCC2`, the IC50 is > 33.3 µM (inactive) in “cells” and 11.7 µM (inactive) in test [1].

Consider `CN1CCN(C2=C(Cl)C(=O)c3ccccc3C2=O)CC1`, for which the AC50 in test [2] was > 100 µM (inactive); in [3], 108 nM (active); in [7], 1.03 µM (active). Moreover, the IC50 on Cysteine protease ATG4B is 2.02 µM (active); in [5], > 100 µM (active); in test [6] it was 581 nM (active); on Genome polyprotein it was 6.33 µM (active); on Phospholipase A2 it was 58.9 µM (inactive). The figures for the CC50 (with Vero; in test [4]) were 11.8 µM (active) and 6.22 µM (active), respectively.

Consider `COc1cc2nc(-c3cccc(F)c3)cc(O)c2cc1OC`, for which, in test [8], the EC50 was 5.44 µM (active).

Take `Cc1cc(NO)nc(-c2ccc(Br)cc2)n1`: the 50% effective concentration (EC50) in test [9] was 22.8 µM (active); in test [10], 405 nM (active); with H4 it was 40.2 µM (active). Besides, the IC50 in test [11] was 728 nM (active).

For `CCOC(=O)c1ccc2[nH]c3c(c2c1)CCCCC3=O`, the IC50 in test [12] is listed as > 93.1 µM (not active).

For `O=c1cc(-c2cccc(O)c2)oc2c(O)c(O)ccc12`, the AC50 on Cytochrome P450 2C19 is 15.8 µM (inconclusive).

For the origin of these results see ChEMBL document CHEMBL1201862, “PubChem BioAssay data set” (2004).
